According to PMC5667636 (Antiviral Research, 2017):

How the values were obtained:
[1] = system: neuraminidase (NA) of A(H1N1)pdm09 viruses; conditions: cited from earlier work
[2] = system: neuraminidase (NA) of A(H1N1)pdm09 viruses; format: biochemical, influenza A(H1N1)pdm09 virus
[3] = system: neuraminidase (NA) of B/Yamagata-lineage viruses; format: biochemical, influenza B/Yamagata-lineage virus

| Compound | effect on inhibition (IC50 fold) [1] | IC50 fold-change of viruses exhibiting RI/HRI [2] | inhibition phenotype in NAI assay (NI/RI/HRI) [3] |
| --- | --- | --- | --- |
| CCOC(=O)C1=C[C@@H](OC(CC)CC)[C@H](NC(C)=O)[C@@H](N)C1 [Oseltamivir, oseltamivir] | 5- to 8 fold |  |  |
| CCC(CC)[C@H](NC(C)=O)[C@@H]1[C@H](O)[C@@H](C(=O)O)C[C@H]1N=C(N)N [Peramivir, peramivir] |  | 10- to 6270 fold | borderline RI |
| CC(=O)N[C@H]1[C@H]([C@H](O)[C@H](O)CO)OC(C(=O)O)=C[C@@H]1N=C(N)N [Zanamivir, zanamivir] |  |  | borderline RI |
